{
  "source": "patent US9521846B2",
  "about": "“Template-fixed peptidomimetics with antimicrobial activity” (priority 2006, dated 2016)",
  "key": {"[1]": {"assay": "Plasma stability, human plasma", "type": "in vitro ADME"}, "[2]": {"test_system": "human red blood cells (hRBC)", "assay": "Hemolysis", "type": "cell-based", "settings": "100"}, "[3]": {"test_system": "Pseudomonas aeruginosa P1021913", "type": "cell-based", "settings": "P1021913", "how_it_was_run": "(§1)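 Peptide activity was measured by a modified NCCLS broth microdilution method in Mueller-Hinton broth with 0.02% BSA. An inoculum adjusted against a 0.5 McFarland standard to about 10^6 CFU/ml was mixed 1:1 with two-fold serial peptide dilutions.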"}, "[4]": {"test_system": "Pseudomonas aeruginosa P8191900", "type": "cell-based", "settings": "P8191900", "how_it_was_run": "as §1"}, "[5]": {"test_system": "Pseudomonas aeruginosa P1021903", "type": "cell-based", "settings": "P1021903", "how_it_was_run": "as §1"}, "[6]": {"test_system": "Pseudomonas aeruginosa IMP 1 Livermore 3140", "type": "cell-based", "settings": "IMP 1 Livermore 3140", "how_it_was_run": "as §1"}, "HELA cells (Acc57)": {"test_system": "HELA cells (Acc57)", "assay": "Cytotoxicity assay, MTT reduction (LC 50, GI 50)", "type": "cell-based", "how_it_was_run": "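Read-out was MTT reduction (A595) after 48 h peptide exposure (12.5–50 μM, triplicates) of HeLa cells plated at 7.0×10^3/well and precultured 24 h. Growth % was normalised to a time-zero reading. Linear trend interpolation gave the concentration at −50% growth (LC50) and at 50% growth (GI50).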"}, "[7]": {"assay": "Plasma stability, rat plasma", "type": "in vitro ADME"}, "P. aeruginosa ATCC 27853": {"test_system": "P. aeruginosa ATCC 27853", "type": "cell-based, Pseudomonas aeruginosa", "settings": "ATCC 27853", "how_it_was_run": "as §1"}},
  "note": "Non-standard residues stand in square brackets, D forms with d. Residues, ends and D or L forms follow the SMILES beside them. hSer = N[C@@H](CCO)C(=O)O; Dab = NCC[C@H](N)C(=O)O",
  "data": [
    {"smiles": "CC[C@H](C)[C@@H]1NC(=O)[C@H](Cc2c[nH]c3ccccc23)NC(=O)[C@H]([C@@H](C)O)NC(=O)[C@@H]2CCCN2C(=O)[C@H]2CCCN2C(=O)[C@H](CCN)NC(=O)[C@H](C)NC(=O)[C@H](CCN)NC(=O)[C@H](CCN)NC(=O)[C@H](Cc2c[nH]c3ccccc23)NC(=O)[C@H](CCN)NC(=O)[C@H](CCN)NC(=O)[C@H](CCCCN)NC(=O)[C@H](CCC(N)=O)NC1=O", "note": "[Example 29] (cyclo(TWIQK[Dab][Dab]W[Dab][Dab]A[Dab][dP]P))", "values": [
      {"measurement": "Average MIC", "setting": "P. aeruginosa", "result": 0.19, "unit": "µg/mL"},
      {"measurement": "Stability human Plasma t1/2", "setting": "[1]", "result": 5, "unit": "h"},
      {"measurement": "Hemolysis at 100 μg/ml", "setting": "[2]", "result": 0.5, "unit": "%"},
      {"measurement": "MIC P. aeruginosa P1021913", "setting": "[3]", "result": 0.21, "unit": "µg/mL"},
      {"measurement": "MIC P. aeruginosa P8191900", "setting": "[4]", "result": 0.13, "unit": "µg/mL"},
      {"measurement": "MIC P. aeruginosa P1021903", "setting": "[5]", "result": 0.13, "unit": "µg/mL"},
      {"measurement": "MIC P. aeruginosa IMP1 Livermore 3140", "setting": "[6]", "result": 0.40, "unit": "µg/mL"},
      {"measurement": "Cytotoxicity GI50 Hela cells", "setting": "HELA cells (Acc57)", "result": 50, "unit": "µM"},
      {"measurement": "Stability rat Plasma t1/2", "setting": "[7]", "result": 5, "unit": "h"},
      {"measurement": "MIC P. aeruginosa ATCC 27853", "setting": "P. aeruginosa ATCC 27853", "result": 0.09, "unit": "µg/mL"}
    ]},
    {"smiles": "CC(C)[C@@H]1NC(=O)[C@H](Cc2c[nH]c3ccccc23)NC(=O)[C@H]([C@@H](C)O)NC(=O)[C@@H]2CCCN2C(=O)[C@H]2CCCN2C(=O)[C@H](CCN)NC(=O)[C@H](C)NC(=O)[C@H](CCN)NC(=O)[C@H](CCN)NC(=O)[C@H](Cc2c[nH]c3ccccc23)NC(=O)[C@H](CCN)NC(=O)[C@H](CCN)NC(=O)[C@H](CCCCN)NC(=O)[C@H](CCN)NC1=O", "note": "[Example 32] (cyclo(TWV[Dab]K[Dab][Dab]W[Dab][Dab]A[Dab][dP]P))", "values": [
      {"measurement": "Average MIC", "setting": "P. aeruginosa", "result": 0.09, "unit": "µg/mL"},
      {"measurement": "Stability human Plasma t1/2", "setting": "[1]", "result": 5, "unit": "h"},
      {"measurement": "Hemolysis at 100 μg/ml", "setting": "[2]", "result": 0, "unit": "%"},
      {"measurement": "MIC P. aeruginosa P1021913", "setting": "[3]", "result": 0.10, "unit": "µg/mL"},
      {"measurement": "MIC P. aeruginosa P8191900", "setting": "[4]", "result": 0.05, "unit": "µg/mL"},
      {"measurement": "MIC P. aeruginosa P1021903", "setting": "[5]", "result": 0.05, "unit": "µg/mL"},
      {"measurement": "MIC P. aeruginosa IMP1 Livermore 3140", "setting": "[6]", "result": 0.22, "unit": "µg/mL"},
      {"measurement": "Cytotoxicity GI50 Hela cells", "setting": "HELA cells (Acc57)", "result": 50, "unit": "µM"},
      {"measurement": "Stability rat Plasma t1/2", "setting": "[7]", "result": 5, "unit": "h"},
      {"measurement": "MIC P. aeruginosa ATCC 27853", "setting": "P. aeruginosa ATCC 27853", "result": 0.02, "unit": "µg/mL"}
    ]},
    {"smiles": "CC[C@H](C)[C@@H]1NC(=O)[C@H](Cc2c[nH]c3ccccc23)NC(=O)[C@H]([C@@H](C)O)NC(=O)[C@@H]2CCCN2C(=O)[C@H]2CCCN2C(=O)[C@H](CCN)NC(=O)[C@H](CCO)NC(=O)[C@H](CCN)NC(=O)[C@H](CCN)NC(=O)[C@H](Cc2c[nH]c3ccccc23)NC(=O)[C@H](CCN)NC(=O)[C@H](CCN)NC(=O)[C@H](CCCCN)NC(=O)[C@H](CCN)NC1=O", "note": "[Example 35] (cyclo(TWI[Dab]K[Dab][Dab]W[Dab][Dab][hSer][Dab][dP]P))", "values": [
      {"measurement": "Average MIC", "setting": "P. aeruginosa", "result": 0.18, "unit": "µg/mL"},
      {"measurement": "Stability human Plasma t1/2", "setting": "[1]", "result": 5, "unit": "h"},
      {"measurement": "Hemolysis at 100 μg/ml", "setting": "[2]", "result": 0.2, "unit": "%"},
      {"measurement": "MIC P. aeruginosa P1021913", "setting": "[3]", "result": 0.24, "unit": "µg/mL"},
      {"measurement": "MIC P. aeruginosa P8191900", "setting": "[4]", "result": 0.22, "unit": "µg/mL"},
      {"measurement": "MIC P. aeruginosa P1021903", "setting": "[5]", "result": 0.10, "unit": "µg/mL"},
      {"measurement": "MIC P. aeruginosa IMP1 Livermore 3140", "setting": "[6]", "result": 0.31, "unit": "µg/mL"},
      {"measurement": "Cytotoxicity GI50 Hela cells", "setting": "HELA cells (Acc57)", "result": 48, "unit": "µM"},
      {"measurement": "Stability rat Plasma t1/2", "setting": "[7]", "result": 5, "unit": "h"},
      {"measurement": "MIC P. aeruginosa ATCC 27853", "setting": "P. aeruginosa ATCC 27853", "result": 0.05, "unit": "µg/mL"}
    ]}
  ]
}
